Structures are written as SMILES. Peptide text beside a SMILES is read from it.

The subject of one assay is HSV1. It is filed as cell-based, Human herpes simplex virus type 1. The following applies: for efficacy for reducing HSV1 infectivity (in words): Examples 2 and 3. The essentials: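 Plaque reduction in Vero monolayers: ~100 pfu HSV1 pre-mixed 10 min at 37 °C with acetylated/amidated peptides in 0.5% FCS medium, inoculated 60–80 min, then carboxymethylcellulose overlay for 22 or 40 h. Plaques counted after fixing and carbol fuchsin staining; IC50 from % of control versus peptide concentration.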

The test system of another assay is HSV2 clinical isolates. It is filed as cell-based, Human herpes simplex virus type 2. How it is done:
Plaque assays were performed. The methodology was as described in previous Examples for HSV1 plaque assays (including usage of Vero cells) except HSV2 clinical isolates (provided by Prof. Anthony Hart of Liverpool University) were employed instead.

The subject of another assay is HIV-1 111B. The experiment in a line: HIV-1 111B in C8166 T-cells, syncytia and gp120 ELISA. It is filed as cell-based, Human Immunodeficiency Virus. The note with it: 5 days, read-out: IC50 for inhibiting HIV-1 growth. The procedure:
Peptides (prepared as described previously) were diluted in 50 μl aliquots and mixed with T-cells (C8166) at 40,000 cells per well. Next HIV-1 111B was added at a multiplicity of infection (MOI) of 0.01, and the mixture incubated for 5 days at 37° C. Syncytia formation was assessed visually using an inverting microscope, and viral gp120 levels in supernatants assessed by a gp120 ELISA using GNA for antigen capture. 96-well plates coated with 50 ul GNA (Galanthus nivalis) were washed, then treated with 100 μl RPMI (10% foetal calf serum) and left for one hour. After further washing, 25 μl test sample supernatants were added to wells, along with dilutions of infected control samples. After lysis by 3 hr treatment with 0.5% Empigen (detergent used to lyse virus) to all wells, and washing, 50 μl of human anti-HIV sera was added, and plates incubated overnight. After further washing, 50 μl of a 1000× dilution of anti-human Ig peroxidase conjugate was added, and plates incubated at 37° C. for 90 min. After a final wash, 50 ul peroxidase substrate was added to each well, and plates incubated for 10-30 min. Reaction was stopped with 25 μl 2M H2SO4, and A450 measured.
In general terms: In an ELISA, binding on a coated surface is turned into a signal by an enzyme label.

The subject of another assay is HIV-1. The note with it: NP2 glioma cells, peptide 0.1 to 10 micromolar.

As a reminder, the IC50 is the concentration needed to halve the response being measured. Regarding `CC(=O)N[C@@H](Cc1c[nH]c2ccccc12)C(=O)N[C@@H](CCCNC(=N)N)C(=O)N[C@@H](CCCCN)C(=O)N[C@@H](Cc1c[nH]c2ccccc12)C(=O)N[C@@H](CCCNC(=N)N)C(=O)N[C@@H](CCCCN)C(=O)N[C@@H](CCCNC(=N)N)C(=O)N[C@@H](Cc1c[nH]c2ccccc12)C(=O)N[C@@H](CCCNC(=N)N)C(=O)N[C@@H](CCCCN)C(=O)N[C@@H](Cc1c[nH]c2ccccc12)C(=O)N[C@@H](CCCNC(=N)N)C(=O)N[C@@H](CCCCN)C(=O)N[C@@H](CCCNC(=N)N)C(N)=O` [GIN 32] (Ac-WRKWRKRWRKWRKR-NH2), the IC50 worked out at 10 µM in the assay on HSV1, 6.25 µM with HSV2 clinical isolates and 7.5 µM in the assay on HIV-1 111B. Moreover, in the assay with HSV1, the “efficacy for reducing HSV1 infectivity (in words)” value is reported as “also had efficacy”.
Take `CC(=O)N[C@@H](CC(C)C)C(=O)N[C@@H](CCCNC(=N)N)C(=O)N[C@@H](CCCCN)C(=O)N[C@@H](CC(C)C)C(=O)N[C@@H](CCCNC(=N)N)C(=O)N[C@@H](CCCCN)C(=O)N[C@@H](CCCNC(=N)N)C(=O)N[C@@H](CC(C)C)C(=O)N[C@@H](CC(C)C)C(=O)N[C@@H](Cc1c[nH]c2ccccc12)C(=O)N[C@@H](CCCNC(=N)N)C(=O)N[C@@H](CCCCN)C(=O)N[C@@H](Cc1c[nH]c2ccccc12)C(=O)N[C@@H](CCCNC(=N)N)C(=O)N[C@@H](CCCCN)C(=O)N[C@@H](CCCNC(=N)N)C(=O)N[C@@H](Cc1c[nH]c2ccccc12)C(=O)N[C@@H](Cc1c[nH]c2ccccc12)C(N)=O` [MU 111] (Ac-LRKLRKRLLWRKWRKRWW-NH2): the concentration for half-maximal inhibition (IC50) with HSV1 amounted to 12.5 µM; in the assay on HSV2 clinical isolates it was 6.5 µM.
As to `CC(=O)N[C@@H](Cc1c[nH]c2ccccc12)C(=O)N[C@@H](CCCNC(=N)N)C(=O)N[C@@H](CCCCN)C(=O)N[C@@H](Cc1c[nH]c2ccccc12)C(=O)N[C@@H](CCCNC(=N)N)C(=O)N[C@@H](CCCCN)C(=O)N[C@@H](CCCNC(=N)N)C(=O)N[C@@H](Cc1c[nH]c2ccccc12)C(=O)N[C@@H](Cc1c[nH]c2ccccc12)C(=O)N[C@@H](CC(C)C)C(=O)N[C@@H](CCCNC(=N)N)C(=O)N[C@@H](CCCCN)C(=O)N[C@@H](CC(C)C)C(=O)N[C@@H](CCCNC(=N)N)C(=O)N[C@@H](CCCCN)C(=O)N[C@@H](CCCNC(=N)N)C(=O)N[C@@H](CC(C)C)C(=O)N[C@@H](CC(C)C)C(N)=O` [GIN 34] (Ac-WRKWRKRWWLRKLRKRLL-NH2), in the assay with HSV1, the midpoint of inhibition, the IC50, lay at 6 µM and the “efficacy for reducing HSV1 infectivity (in words)” value was “also had efficacy”. Also, the IC50 in the assay on HSV2 clinical isolates was less than 3.3 µM.
Take `CC(=O)N[C@@H](Cc1c[nH]c2ccccc12)C(=O)N[C@@H](CCCNC(=N)N)C(=O)N[C@@H](CCCCN)C(=O)N[C@@H](Cc1c[nH]c2ccccc12)C(=O)N[C@@H](CCCNC(=N)N)C(=O)N[C@@H](CCCCN)C(=O)N[C@@H](CCCNC(=N)N)C(=O)N[C@@H](Cc1c[nH]c2ccccc12)C(=O)N[C@@H](CCCNC(=N)N)C(=O)N[C@@H](CCCCN)C(=O)N[C@@H](Cc1c[nH]c2ccccc12)C(=O)N[C@@H](CCCNC(=N)N)C(=O)N[C@@H](CCCCN)C(=O)N[C@@H](CCCNC(=N)N)C(=O)N[C@@H](Cc1c[nH]c2ccccc12)C(N)=O` [MU 59] (Ac-WRKWRKRWRKWRKRW-NH2): the IC50 with HSV1 was 9.75 µM; with HSV2 clinical isolates, 10 µM.
On the same counts, the results for `CC(=O)N[C@@H](CC(C)C)C(=O)N[C@@H](CCCNC(=N)N)C(=O)N[C@@H](CCCCN)C(=O)N[C@@H](CC(C)C)C(=O)N[C@@H](CCCNC(=N)N)C(=O)N[C@@H](CCCCN)C(=O)N[C@@H](CCCNC(=N)N)C(=O)N[C@@H](CC(C)C)C(=O)N[C@@H](CC(C)C)C(=O)N[C@@H](CC(C)C)C(=O)N[C@@H](CCCNC(=N)N)C(=O)N[C@@H](CCCCN)C(=O)N[C@@H](CC(C)C)C(=O)N[C@@H](CCCNC(=N)N)C(=O)N[C@@H](CCCCN)C(=O)N[C@@H](CCCNC(=N)N)C(=O)N[C@@H](Cc1c[nH]c2ccccc12)C(=O)N[C@@H](Cc1c[nH]c2ccccc12)C(N)=O` [MU 112] (Ac-LRKLRKRLLLRKLRKRWW-NH2) are more than 20 µM and 16 µM.
In the case of `CC(=O)N[C@@H](CC(C)C)C(=O)N[C@@H](CCCNC(=N)N)C(=O)N[C@@H](CCCCN)C(=O)N[C@@H](CC(C)C)C(=O)N[C@@H](CCCNC(=N)N)C(=O)N[C@@H](CCCCN)C(=O)N[C@@H](CCCNC(=N)N)C(=O)N[C@@H](CC(C)C)C(=O)N[C@@H](CC(C)C)C(=O)N[C@@H](Cc1c[nH]c2ccccc12)C(=O)N[C@@H](CCCNC(=N)N)C(=O)N[C@@H](CCCCN)C(=O)N[C@@H](Cc1c[nH]c2ccccc12)C(=O)N[C@@H](CCCNC(=N)N)C(=O)N[C@@H](CCCCN)C(=O)N[C@@H](CCCNC(=N)N)C(=O)N[C@@H](CC(C)C)C(=O)N[C@@H](CC(C)C)C(N)=O` [MU 113] (Ac-LRKLRKRLLWRKWRKRLL-NH2), the IC50 in the assay on HSV1 came out at 18.5 µM; in the assay on HSV2 clinical isolates it was 11.8 µM.
For `CC(=O)N[C@@H](CC(C)C)C(=O)N[C@@H](CCCNC(=N)N)C(=O)N[C@@H](CCCCN)C(=O)N[C@@H](CC(C)C)C(=O)N[C@@H](CCCNC(=N)N)C(=O)N[C@@H](CCCCN)C(=O)N[C@@H](CCCNC(=N)N)C(=O)N[C@@H](CC(C)C)C(=O)N[C@@H](CC(C)C)C(=O)N[C@@H](CC(C)C)C(=O)N[C@@H](CCCNC(=N)N)C(=O)N[C@@H](CCCCN)C(=O)N[C@@H](CC(C)C)C(=O)N[C@@H](CCCNC(=N)N)C(=O)N[C@@H](CCCCN)C(=O)N[C@@H](CCCNC(=N)N)C(=O)N[C@@H](CC(C)C)C(=O)N[C@@H](CC(C)C)C(N)=O` [GIN 1p] (Ac-LRKLRKRLLLRKLRKRLL-NH2), the “efficacy for reducing HSV1 infectivity (in words)” value in the assay with HSV1 is on record as “had anti-HSV-1 properties”. Further, the “anti-HIV activity (in words)” value in the assay with HIV-1 is “no detectable anti-HIV activity”.
`CC(=O)N[C@@H](Cc1c[nH]c2ccccc12)C(=O)N[C@@H](CCCNC(=N)N)C(=O)N[C@@H](CCCCN)C(=O)N[C@@H](Cc1c[nH]c2ccccc12)C(=O)N[C@@H](CCCNC(=N)N)C(=O)N[C@@H](CCCCN)C(=O)N[C@@H](CCCNC(=N)N)C(=O)N[C@@H](CC(C)C)C(=O)N[C@@H](CC(C)C)C(=O)N[C@@H](CC(C)C)C(=O)N[C@@H](CCCNC(=N)N)C(=O)N[C@@H](CCCCN)C(=O)N[C@@H](CC(C)C)C(=O)N[C@@H](CCCNC(=N)N)C(=O)N[C@@H](CCCCN)C(=O)N[C@@H](CCCNC(=N)N)C(=O)N[C@@H](CC(C)C)C(=O)N[C@@H](CC(C)C)C(N)=O` [MU 114] (Ac-WRKWRKRLLLRKLRKRLL-NH2): the IC50 is 16 µM in the assay with HSV1 and 9 µM with HSV2 clinical isolates.

The record behind these values is patent US7691382B2, “Antiviral polypeptides comprising tandem repeats of APOE 141-149 and variants thereof” (priority 2003, dated 2010).
